According to patent EP2061765B1, “Serine-threonine protein kinase and PARP modulators” (Senhwa Biosciences, Inc., priority 2006, dated 2008):

What was measured:
Test in all cases: Cell proliferation assay (Alamar Blue)
Assay type in all cases: cell-based
HCT-116 = details: Homo sapiens, 96 h, HCT-116 cells, four days
Jurkat = details: Homo sapiens, 96 h, Jurkat cells, four days
Description: (§1) A representative cell-proliferation assay protocol using Alamar Blue dye (stored at 4°C, use 20ul per well) is described hereafter. 96-well plate setup and compound treatment • a. Split and trypsinize cells. • b. Count cells using hemocytometer. • c. Plate 4,000-5,000 cells per well in 100 µl of medium and seed into a 96-well plate according to the following plate layout. Add cell culture medium only to wells B10 to B12. Wells B1 to B9 have cells but no compound added. [formula] [formula] • d. Add 100 µl of 2X drug dilution to each well in a concentration shown in the plate layout above. At the same time, add 100 µl of media into the control wells (wells B10 to B12). Total volume is 200 µl/well. • e. Incubate four (4) days at 37°C, 5% CO2 in a humidified incubator. • f. Add 20µl Alamar Blue reagent to each well. • g. Incubate for four (4) hours at 37°C, 5% CO2 in a humidified incubator. • h. Record fluorescence at an excitation wavelength of 544nm and emission wavelength of 590nm using a microplate reader.
(§2) In the assays, cells are cultured with a test compound for approximately four days, the dye then is added to the cells and fluorescence of […] dye is detected after approximately four hours. Different types of cells can be utilized in the assays (e.g., HCT-116 human colorectal carcinoma cells, PC-3 human prostatic cancer cells and MiaPaca human pancreatic carcinoma cells). Anti-proliferative effects of representative compounds are provided hereafter.

MiaPaCa = details: Homo sapiens, MIA PaCa-2, 96 h, MiaPaCa cells, four days
Description: as §1, §2

Row | IC50 (HCT-116) | IC50 (Jurkat) | IC50 (MiaPaCa) | Structure (SMILES)
1 | > 10 µM | 8.98 µM | 5.12 µM | O=C(O)c1ccc2c(c1)nc(Nc1ccccc1)c1nc(Nc3ccccc3)ncc12 [drawing 369]
2 | > 10 µM | 4.41 µM | 17.1 µM | COC(=O)c1ccc2c(c1)nc(Nc1cccc(Cl)c1)c1nc(NCCC(N)=O)ncc12 [drawing 353]
3 | > 10 µM | 1.16 µM | 3.97 µM | NC(=O)c1ccc2c(c1)nc(Nc1cccc(C(F)(F)F)c1)c1nc(NC3CC3)ncc12 [drawing 364]
4 | > 10 µM | > 50 µM | > 50 µM | O=C(O)c1ccc2c(c1)nc(Nc1cccc(Cl)c1)c1nc(O)ncc12 [drawing 350]
5 | > 10 µM | 5.8 µM | 3.2 µM | COCCNc1ncc2c(n1)c(Nc1ccccc1)nc1cc(C(=O)O)ccc12 [drawing 320]
6 | > 10 µM | 5.7 µM | 1.69 µM | O=C(O)c1ccc2c(c1)nc(Nc1ccccc1)c1nc(NCCN3CCOCC3)ncc12 [drawing 325]
7 | > 10 µM | – | – | c1ccc(Nc2nc3cc(-c4nnn[nH]4)ccc3c3cnccc23)cc1
8 | > 10 µM | 1.5 µM | 1.97 µM | O=C(O)c1ccc2c(c1)nc(Nc1ccc(F)c(Cl)c1)c1nc(NCc3cccnc3)ncc12 [drawing 367]
9 | > 10 µM | 1.16 µM | – | CC(C)OC(=O)Nc1ccc2c(c1)nc(Nc1cccc(C(F)(F)F)c1)c1nc(NC3CC3)ncc12 [drawing 370]
10 | > 10 µM | 3.75 µM | 0.33 µM | CCOC(=O)CCNC(=O)c1ccc2c(c1)nc(Nc1cccc(C(F)(F)F)c1)c1nc(NC3CC3)ncc12 [drawing 371]
11 | 4.28 µM | – | 4.05 µM | OCc1ccc2c(c1)nc(Nc1cccc(Cl)c1)c1ccncc12
12 | 3.99 µM | 3.05 µM | 9.09 µM | O=C(O)c1ccc2c(c1)nc(Nc1ccc(Cl)c(C(F)(F)F)c1)c1ccncc12 [drawing 333]
13 | > 10 µM | 1.12 µM | 3.41 µM | COC(CNc1ncc2c(n1)c(Nc1ccc(F)c(Cl)c1)nc1cc(C(=O)O)ccc12)OC [drawing 363]
14 | 6.9 µM | – | – | N#Cc1ccc2c(c1)nc(Nc1ccccc1)c1ccncc12
15 | > 10 µM | > 50 µM | > 50 µM | O=C(O)CCNc1ncc2c(n1)c(Nc1cccc(Cl)c1)nc1cc(C(=O)O)ccc12 [drawing 355]
16 | > 10 µM | 27 µM | > 50 µM | C#Cc1cccc(Nc2nc3cc(C(=O)OC)ccc3c3cnc(NOC)nc23)c1 [drawing 352]
17 | > 10 µM | 4.53 µM | 2.99 µM | CCCNc1ncc2c(n1)c(Nc1ccccc1)nc1cc(C(=O)O)ccc12 [drawing 319]
18 | > 10 µM | 9.55 µM | 8.62 µM | C#Cc1cccc(Nc2nc3cc(C(=O)O)ccc3c3cnc(NC4CCNCC4)nc23)c1 [drawing 330]
19 | > 10 µM | 26.1 µM | 16.2 µM | O=C(O)c1ccc2c(c1)nc(Nc1ccccc1)c1nc(NCCO)ncc12 [drawing 321]

Row | IC50 (HCT-116) | IC50 (Jurkat) | IC50 (MiaPaCa) | Structure (SMILES)
20 | > 10 µM | – | > 10 µM | COC(=O)c1ccc2c(c1)nc(Nc1cccc(Cl)c1)c1ccncc12
21 | > 10 µM | 2.53 µM | 2.23 µM | O=C(O)c1ccc2c(c1)nc(Nc1cccc(C(F)(F)F)c1)c1ncncc12 [drawing 335]
22 | 5.14 µM | 3.15 µM | 8.55 µM | O=C(O)c1ccc2c(c1)nc(Nc1cccc(C(F)(F)F)c1)c1ccncc12 [drawing 357]
23 | > 10 µM | 3.56 µM | 3.27 µM | O=C(O)c1ccc2c(c1)nc(Nc1cccc(F)c1)c1nc(NC3CC3)ncc12 [drawing 359]
24 | > 10 µM | 18.9 µM | 14.4 µM | O=C(O)c1ccc2c(c1)nc(Nc1ccccc1)c1nc(NC3CCNCC3)ncc12 [drawing 323]
25 | > 10 µM | 6.02 µM | 2.32 µM | O=C(O)c1ccc2c(c1)nc(Nc1cc(F)cc(F)c1)c1nc(NC3CC3)ncc12 [drawing 358]
26 | > 10 µM | 3.65 µM | 11.9 µM | CNC(=O)c1ccc2c(c1)nc(Nc1cccc(C(F)(F)F)c1)c1nc(NC3CC3)ncc12 [drawing 366]
27 | > 10 µM | 2.18 µM | 1.36 µM | O=C(O)c1ccc2c(c1)nc(Nc1ccccc1)c1nc(NCCCN3CCOCC3)ncc12 [drawing 326]
28 | > 10 µM | 5.11 µM | 4.5 µM | O=C(O)c1ccc2c(c1)nc(Nc1ccc(F)c(Cl)c1)c1nc(NCc3ccncc3)ncc12 [drawing 368]
29 | – | 3.06 µM | 0.92 µM | CCNc1ncc2c(n1)c(Nc1cccc(Cl)c1)nc1cc(C(=O)O)ccc12 [drawing 342]
30 | > 10 µM | 1.14 µM | 0.88 µM | Nc1ncc2c(n1)c(Nc1cccc(Cl)c1)nc1cc(C(=O)O)ccc12 [drawing 339]
31 | 11.2 µM | 4.34 µM | 0.95 µM | Nc1ncc2c(n1)c(Nc1ccc(F)c(Cl)c1)nc1cc(C(=O)O)ccc12 [drawing 344]
32 | > 10 µM | 3.92 µM | – | O=C(NC1CC1)c1ccc2c(c1)nc(Nc1cccc(C(F)(F)F)c1)c1nc(NC3CC3)ncc12 [drawing 365]
33 | 4.06 µM | – | > 10 µM | CNc1ncc2c(n1)c(Nc1ccccc1)nc1cc(C(=O)OC)ccc12
34 | 7.82 µM | 1.29 µM | 0.47 µM | O=C(O)c1ccc2c(c1)nc(Nc1cccc(Cl)c1)c1nc(NC3CC3)ncc12 [drawing 334]
35 | > 10 µM | 1.13 µM | 0.62 µM | C#Cc1cccc(Nc2nc3cc(C(=O)O)ccc3c3cnc(NCCOCC)nc23)c1 [drawing 347]
36 | > 10 µM | 37.7 µM | > 50 µM | NC(=O)CCNc1ncc2c(n1)c(Nc1cccc(Cl)c1)nc1cc(C(=O)O)ccc12 [drawing 354]
37 | 1.71 µM | – | 2.92 µM | COC(=O)c1ccc2c(c1)nc(Cl)c1ncncc12
38 | 0.97 µM | – | 2.82 µM | COC(=O)c1ccc2c(c1)nc(Nc1ccccc1)c1nc(S(C)(=O)=O)ncc12

Row | IC50 (HCT-116) | IC50 (Jurkat) | IC50 (MiaPaCa) | Structure (SMILES)
39 | > 10 µM | 3.69 µM | 2.26 µM | C#Cc1cccc(Nc2nc3cc(C(=O)O)ccc3c3cnc(NCCCN4CCOCC4)nc23)c1 [drawing 331]
40 | > 10 µM | 1.25 µM | 2.14 µM | CN(C)CCNc1ncc2c(n1)c(Nc1ccc(F)c(Cl)c1)nc1cc(C(=O)O)ccc12 [drawing 361]
41 | 7.3 µM | 1.27 µM | 1.2 µM | C#Cc1cccc(Nc2nc3cc(C(=O)O)ccc3c3cnc(NC4CC4)nc23)c1 [drawing 327]
42 | > 10 µM | 1.54 µM | 0.37 µM | O=C(O)c1ccc2c(c1)nc(Nc1ccc(F)c(Cl)c1)c1nc(NC3CC3)ncc12 [drawing 345]
43 | > 10 µM | 1.24 µM | 0.65 µM | CNc1ncc2c(n1)c(Nc1ccc(F)c(Cl)c1)nc1cc(C(=O)O)ccc12 [drawing 343]
44 | > 10 µM | – | – | Cc1noc(-c2ccc3c(c2)nc(Nc2ccccc2)c2ccncc23)n1
45 | > 10 µM | 0.39 µM | 0.87 µM | C#Cc1cccc(Nc2nc3cc(C(=O)O)ccc3c3cnc(NCCCOCC)nc23)c1 [drawing 348]
46 | > 10 µM | 18.4 µM | 5.45 µM | CC(C)Nc1ncc2c(n1)c(Nc1cccc(Cl)c1)nc1cc(C(=O)O)ccc12 [drawing 340]
47 | 4.69 µM | 1.29 µM | 2.34 µM | C#Cc1cccc(Nc2nc3cc(C(=O)O)ccc3c3cnc(NC)nc23)c1 [drawing 332]
48 | > 10 µM | 7.9 µM | 11.9 µM | O=C(O)c1ccc2c(c1)nc(Nc1ccccc1)c1nc(NCCCO)ncc12 [drawing 322]
49 | 8.05 µM | 0.94 µM | 1 µM | C#Cc1cccc(Nc2nc3cc(C(=O)O)ccc3c3cnc(NCCOC)nc23)c1 [drawing 329]
50 | > 10 µM | 2.67 µM | 2.32 µM | C#Cc1cccc(Nc2nc3cc(C(=O)O)ccc3c3cnc(NCCC)nc23)c1 [drawing 328]
51 | > 10 µM | 4.95 µM | 5.39 µM | Cc1ncc2c(n1)c(Nc1cccc(Cl)c1)nc1cc(C(=O)O)ccc12 [drawing 351]
52 | > 10 µM | 3.44 µM | 2.85 µM | COc1cccc(Nc2nc3cc(C(=O)O)ccc3c3cnc(NC4CC4)nc23)c1 [drawing 360]
53 | > 10 µM | 13.1 µM | 1.45 µM | CCN(CC)CCNc1ncc2c(n1)c(Nc1ccccc1)nc1cc(C(=O)O)ccc12 [drawing 324]
54 | > 10 µM | 2.59 µM | 8.21 µM | O=C(O)c1ccc2c(c1)nc(Nc1ccc(F)c(Cl)c1)c1nc(NCc3ccccn3)ncc12 [drawing 362]
55 | – | 3.13 µM | 0.65 µM | O=C(O)c1ccc2c(c1)nc(Nc1cccc(C(F)(F)F)c1)c1nc(NC3CC3)ncc12 [drawing 341]
56 | 9.56 µM | – | > 10 µM | COC(=O)c1ccc2c(c1)nc(Nc1ccccc1)c1nc(SC)ncc12
